Laboratory results taken from patent US11498920B2, “4-(1H-imidazol-5-yl)-1H-pyrrolo[2, 3-b] pyridines for use in the treatment of leukaemias, lymphomas and solid tumors” (MASARYKOVA UNIVERZITA, priority 2018, dated 2022).

system: Maver-1 cells (mantle cell lymphoma); assay: Cytotoxicity, TMRE flow cytometry viability, Maver-1 cells (Example II.1); assay type: cell-based; details: Homo sapiens, Maver1, 24 hours, TMRE positive cells normalized to control, ratio to PF670462, <1 = higher cytotoxicity than PF670462, read-out: Viability of cells, Compound of formula I (100 μM), relative to PF670462 (100 μM), Maver-1 cells (mantle cell lymphoma)
Method: (§1) The leukemia and lymphoma-derived cell lines [MEC-1 cell line (derived from chronic lymphocytic leukemia—CLL), Nalm-16 (acute lymphocytic leukemia—ALL), K562 (chronic myeloid leukemia—CML), HL-60 (acute myeloid leukemia—AML), Maver-1 and Mino (mantle cell lymphoma—MCL), BL-41 (Burkitt lymphoma—BL), WSU-NHL (follicular lymphoma—FL), SUDHL (diffuse large B-cell lymphoma—DLBCL)], primary CLL cells and nonmalignant control primary cells were cultured in suspension in flasks under the following conditions: RPMI 1640 medium (Hyclone) supplemented with 10% fetal bovine serum (FBS, Gibco) and 1% penicillin/streptomycin (Life Technologies), 37° C., 5% CO2 and 95% relative humidity, with optimal culture cell density 5×10^6 cells/mL in case of primary cells and 0.5-1×10^6 cells/mL in case of cell lines. The adherent cell lines [A375 (derived from malignant melanoma), MDA-MB-231 and MCF-7 (breast cancer), MIA-PA-CA and PANC1 (pancreatic cancer), PC3 (prostate cancer), OVCAR4 (ovarian cancer) and HEPG2 (hepatocellular carcinoma)] were cultured on plates under the same conditions using RPMI1640 or DMEM medium (Gibco) according to instructions provided by the distributor (DSMZ/ATCC).
(§2) Cytotoxicity of compounds of formula I was tested in two models representative for leukemia (primary CLL cells) and lymphoma (Maver-1 cells). The primary CLL cells and Maver-1 cells (MCL-derived) were incubated with inhibitors at 100 μM concentration or corresponding amount of solvent (DMSO, Sigma Aldrich) as 0.1×10^6 cells/200 μl per well in a 96-well plate. Experiments were performed in technical duplicates. Viability of cells was assessed after 6 hours in case of primary CLL cells and after 24 hours in case of Maver-1 cells.
(§3) Apoptosis-induced reduction of mitochondrial potential is detected as lower TMRE fluorescence. […] Relative values are presented, showing ratio to the effect of PF670462 (as the closest prior art). Relative value <1 indicates a higher cytotoxicity than PF670462.

SMILES | viability at 100 µM [%]
Fc1cccc(-c2ncn(C3CCCCC3)c2-c2ccnc3[nH]ccc23)c1 [Preparative Example 1, 4-(1-cyclohexyl-4-(3-fluorophenyl)-1H-imidazol-5-yl)-1H-pyrrolo[2,3-b]pyridine] | 6
Fc1ccccc1-c1ncn(C2CCCCC2)c1-c1ccnc2[nH]ccc12 [Preparative Example 2, 4-(1-cyclohexyl-4-(2-fluorophenyl)-1H-imidazol-5-yl)-1H-pyrrolo[2,3-b]pyridine] | 32
Fc1ccc(-c2ncn(C3CCCCC3)c2-c2ccnc3[nH]ccc23)c(F)c1 [Preparative Example 4, 4-(1-cyclohexyl-4-(2,4-difluorophenyl)-1H-imidazol-5-yl)-1H-pyrrolo[2,3-b]pyridine] | 21
OC1(Cn2cnc(-c3ccc(F)cc3)c2-c2ccnc3[nH]ccc23)CCC1 [Preparative Example 91, 1-((4-(4-fluorophenyl)-5-(1H-pyrrolo[2,3-b]pyridin-4-yl)-1H-imidazol-1-yl)methyl)cyclobutan-1-ol] | 69
Cn1cc(Cn2cnc(-c3ccc(F)cc3)c2-c2ccnc3[nH]ccc23)cn1 [Preparative Example 93] | 75
Fc1ccc(-c2ncn(Cc3cscn3)c2-c2ccnc3[nH]ccc23)cc1 [Preparative Example 127, 4-((4-(4-fluorophenyl)-5-(1H-pyrrolo[2,3-b]pyridin-4-yl)-1H-imidazol-1-yl)methyl)thiazole] | 72
CC(c1cnn(C)c1)n1cnc(-c2ccc(F)cc2)c1-c1ccnc2[nH]ccc12 (centres unmarked) [Preparative Example 145] | 42
Cc1ncc(Cn2cnc(-c3ccc(F)cc3)c2-c2ccnc3[nH]ccc23)s1 [Preparative Example 152, 5-((4-(4-fluorophenyl)-5-(1H-pyrrolo[2,3-b]pyridin-4-yl)-1H-imidazol-1-yl)methyl)-2-methylthiazole] | 62
Fc1ccc(-c2ncn(Cc3ccccc3)c2-c2ccnc3[nH]ccc23)nc1 [Preparative Example 184, 4-(1-benzyl-4-(5-fluoropyridin-2-yl)-1H-imidazol-5-yl)-1H-pyrrolo[2,3-b]pyridine] | 57

system: primary CLL cells; assay: Cytotoxicity, TMRE flow cytometry viability, primary CLL cells (Example II.1); assay type: cell-based; details: Homo sapiens, CLL cell, 6 hours, TMRE positive cells normalized to control, ratio to PF670462, <1 = higher cytotoxicity than PF670462, read-out: Viability of cells, Compound of formula I (100 μM), relative to PF670462 (100 μM), CLL primary cells
Method: as §1, §2, §3

SMILES | viability at 100 µM [%]
Fc1cccc(-c2ncn(C3CCCCC3)c2-c2ccnc3[nH]ccc23)c1 [Preparative Example 1, 4-(1-cyclohexyl-4-(3-fluorophenyl)-1H-imidazol-5-yl)-1H-pyrrolo[2,3-b]pyridine] | 18
Fc1ccccc1-c1ncn(C2CCCCC2)c1-c1ccnc2[nH]ccc12 [Preparative Example 2, 4-(1-cyclohexyl-4-(2-fluorophenyl)-1H-imidazol-5-yl)-1H-pyrrolo[2,3-b]pyridine] | 37
Fc1ccc(-c2ncn(C3CCCCC3)c2-c2ccnc3[nH]ccc23)c(F)c1 [Preparative Example 4, 4-(1-cyclohexyl-4-(2,4-difluorophenyl)-1H-imidazol-5-yl)-1H-pyrrolo[2,3-b]pyridine] | 21
Fc1ccc(-c2ncn(CCN3CCOCC3)c2-c2ccnc3[nH]ccc23)cc1 [Preparative Example 12, 4-(2-(4-(4-fluorophenyl)-5-(1H-pyrrolo[2,3-b]pyridin-4-yl)-1H-imidazol-1-yl)ethyl)morpholine] | 80
Fc1ccc(-c2ncn(C3CCOCC3)c2-c2ccnc3[nH]ccc23)cc1 [Preparative Example 13, 4-(4-(4-fluorophenyl)-1-(tetrahydro-2H-pyran-4-yl)-1H-imidazol-5-yl)-1H-pyrrolo[2,3-b]pyridine] | 47
CC(C)CCn1cnc(-c2ccc(F)cc2)c1-c1ccnc2[nH]ccc12 [Preparative Example 15, 4-(4-(4-fluorophenyl)-1-isopentyl-1H-imidazol-5-yl)-1H-pyrrolo[2,3-b]pyridine] | 13
Fc1ccc(-c2ncn(C3CCOC3)c2-c2ccnc3[nH]ccc23)cc1 (centres unmarked) [Preparative Example 16, 4-(4-(4-fluorophenyl)-1-(tetrahydrofuran-3-yl)-1H-imidazol-5-yl)-1H-pyrrolo[2,3-b]pyridine] | 67
Fc1ccc(-c2ncn(C3CCC3)c2-c2ccnc3[nH]ccc23)cc1 [Preparative Example 17, 4-(1-cyclobutyl-4-(4-fluorophenyl)-1H-imidazol-5-yl)-1H-pyrrolo[2,3-b]pyridine] | 52
Fc1ccc(-c2ncn(C3CCCC3)c2-c2ccnc3[nH]ccc23)cc1 [Preparative Example 18, 4-(1-cyclopentyl-4-(4-fluorophenyl)-1H-imidazol-5-yl)-1H-pyrrolo[2,3-b]pyridine] | 33
CC(C)OCCn1cnc(-c2ccc(F)cc2)c1-c1ccnc2[nH]ccc12 [Preparative Example 20, 4-(4-(4-fluorophenyl)-1-(2-isopropoxyethyl)-1H-imidazol-5-yl)-1H-pyrrolo[2,3-b]pyridine] | 68
CN(C)CCn1cnc(-c2ccc(F)cc2)c1-c1ccnc2[nH]ccc12 [Preparative Example 21] | 72
Cn1cnc(-c2ccc(F)cc2)c1-c1ccnc2[nH]ccc12 [Preparative Example 25] | 81
CO[C@H]1CC[C@H](n2cnc(-c3ccc(F)cc3)c2-c2ccnc3[nH]ccc23)CC1 [Preparative Example 28, 4-(4-(4-fluorophenyl)-1-(trans-4-methoxycyclohexyl)-1H-imidazol-5-yl)-1H-pyrrolo[2,3-b]pyridine] | 67
C=C(C)Cn1cnc(-c2ccc(F)cc2)c1-c1ccnc2[nH]ccc12 [Preparative Example 30, 4-(4-(4-fluorophenyl)-1-(2-methylallyl)-1H-imidazol-5-yl)-1H-pyrrolo[2,3-b]pyridine] | 69
O[C@H]1CC[C@@H](n2cnc(-c3ccc(F)cc3)c2-c2ccnc3[nH]ccc23)CC1 [Preparative Example 31] | 78
O[C@H]1CC[C@H](n2cnc(-c3ccc(F)cc3)c2-c2ccnc3[nH]ccc23)CC1 [Preparative Example 32, trans-4-(4-(4-fluorophenyl)-5-(1H-pyrrolo[2,3-b]pyridin-4-yl)-1H-imidazol-1-yl)cyclohexan-1-ol] | 67
c1cncc(-c2ncn(C3CCCCC3)c2-c2ccnc3[nH]ccc23)c1 [Preparative Example 44] | 81
CC(=O)N1CCC(n2cnc(-c3ccc(F)cc3)c2-c2ccnc3[nH]ccc23)CC1 [Preparative Example 68, 1-(4-(4-(4-fluorophenyl)-5-(1H-pyrrolo[2,3-b]pyridin-4-yl)-1H-imidazol-1-yl)piperidin-1-yl)ethan-1-one] | 81
CC(=O)N[C@H]1CC[C@H](n2cnc(-c3ccc(F)cc3)c2-c2ccnc3[nH]ccc23)CC1 [Preparative Example 78, N-(trans-4-(4-(4-fluorophenyl)-5-(1H-pyrrolo[2,3-b]pyridin-4-yl)-1H-imidazol-1-yl)cyclohexyl)acetamide] | 87
CS(=O)(=O)N[C@H]1CC[C@H](n2cnc(-c3ccc(F)cc3)c2-c2ccnc3[nH]ccc23)CC1 [Preparative Example 79, N-(trans-4-(4-(4-fluorophenyl)-5-(1H-pyrrolo[2,3-b]pyridin-4-yl)-1H-imidazol-1-yl)cyclohexyl)methanesulfonamide] | 86
Fc1ccc(-c2ncn(Cc3ccncc3)c2-c2ccnc3[nH]ccc23)cc1 [Preparative Example 83, 4-(4-(4-fluorophenyl)-1-(pyridin-4-ylmethyl)-1H-imidazol-5-yl)-1H-pyrrolo[2,3-b]pyridine] | 78
Fc1ccc(-c2ncn(C34CCN(CC3)C4)c2-c2ccnc3[nH]ccc23)cc1 [Preparative Example 86, 4-(1-((1r,4r)-1-azabicyclo[2.2.1]heptan-4-yl)-4-(4-fluorophenyl)-1H-imidazol-5-yl)-1H-pyrrolo[2,3-b]pyridine] | 76
CN1CCC(O)(Cn2cnc(-c3ccc(F)cc3)c2-c2ccnc3[nH]ccc23)CC1 [Preparative Example 119, 4-((4-(4-fluorophenyl)-5-(1H-pyrrolo[2,3-b]pyridin-4-yl)-1H-imidazol-1-yl)methyl)-1-methylpiperidin-4-ol] | 87
Fc1ccc(-c2ncn(Cc3cnsc3)c2-c2ccnc3[nH]ccc23)cc1 [Preparative Example 130, 4-((4-(4-fluorophenyl)-5-(1H-pyrrolo[2,3-b]pyridin-4-yl)-1H-imidazol-1-yl)methyl)isothiazole] | 89
Cn1ccc(Cn2cnc(-c3ccc(F)c(Cl)c3)c2-c2ccnc3[nH]ccc23)n1 [Preparative Example 143, 4-(4-(3-chloro-4-fluorophenyl)-1-((1-methyl-1H-pyrazol-3-yl)methyl)-1H-imidazol-5-yl)-1H-pyrrolo[2,3-b]pyridine] | 66
O[C@H]1CCC[C@H](n2cnc(-c3ccc(F)cc3)c2-c2ccnc3[nH]ccc23)C1 [Preparative Example 158, (1S,3S)-3-(4-(4-fluorophenyl)-5-(1H-pyrrolo[2,3-b]pyridin-4-yl)-1H-imidazol-1-yl)cyclohexan-1-ol] | 76
